Tests used:
[1] = target: SOS1:KRAS (G12C) interaction (Homo sapiens (Human), UniProt Q07889); test: SOS1 KRas(G12C) FRET Assay; type: binding; settings: 0.5 nM His10-SOS1 (res. 564-1049), 2.5 nM GST-KRAS G12C (res. 1-169), 2 hrs at RT
How it was run: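 GST-KRAS G12C (res. 1-169) at 2.5 nM and His10-SOS1 (res. 564-1049) at 0.5 nM, final, in PBS with 0.1% BSA, 5 mM MgCl2, 100 mM KF, 5 mM DTT and 0.5% DMSO. After 2 h at RT, FRET read at 665/615 nm and normalized to DMSO and no-SOS1 controls. IC50 by non-linear regression.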

human SOS1 = human SOS1 (Homo sapiens (Human), UniProt Q07889); test: Surface Plasmon Resonance (SPR) SOS1 Binding Assay; settings: biotinylated SOS1 (res. 564-1049), Biacore 8K, 25° C., kinetic or steady state fit, 1:1 binding; read-out: hSOS1 KD
Procedure: Binding to SOS1 was measured using a SPR assay with purified recombinant human SOS1 substrate (res. 564-1049 with N-terminal Avi tag; purified and biotinylated based on Hillig, et al., Proc Natl Acad Sci USA (2019); 116(7):2551-2560). SPR measurements were performed on a Biacore 8K SPR instrument (GE Healthcare, Sweden). Assays were performed at 25° C. using Series S SA sensor chips pre-coated with streptavidin (GE Healthcare, Cat. BR100531). Biotinylated SOS1 diluted in sample buffer (20 mM Tris HCI, 150 mM NaCl, 1 mM DTT, 0.05% TWEEN 20, 1 mM MgCh, pH 8.0) was captured to one flow cell of the chip to about 3,000 resonance units (RU) using sample buffer supplemented with 5% DMSO as a running buffer. Serial dilutions of the assayed compounds in the running buffer at 100, 50 or 0.5 µM were injected for 60 s at a flow rate of 30 µL/min and association phases were recorded. Dissociation of the samples was monitored for 600 s. Data processing was performed using Biacore Insight Software (Biacore, GE Healthcare). Sensorgrams recorded on a SA flow cell without captured protein were subtracted from sensorgrams recorded on the SOS1 surface. Blank injections of running buffer were used for double referencing and solvent correction was applied to all sample sensorgrams to correct for buffer mismatches. KDS were estimated using a kinetic or steady state, where applicable, fitting model describing a reversible equilibrium with 1:1 binding between SOS1 and the compound.

Sequence of SOS1:KRAS (G12C) interaction (Q07889 564-1049, stated change not applied): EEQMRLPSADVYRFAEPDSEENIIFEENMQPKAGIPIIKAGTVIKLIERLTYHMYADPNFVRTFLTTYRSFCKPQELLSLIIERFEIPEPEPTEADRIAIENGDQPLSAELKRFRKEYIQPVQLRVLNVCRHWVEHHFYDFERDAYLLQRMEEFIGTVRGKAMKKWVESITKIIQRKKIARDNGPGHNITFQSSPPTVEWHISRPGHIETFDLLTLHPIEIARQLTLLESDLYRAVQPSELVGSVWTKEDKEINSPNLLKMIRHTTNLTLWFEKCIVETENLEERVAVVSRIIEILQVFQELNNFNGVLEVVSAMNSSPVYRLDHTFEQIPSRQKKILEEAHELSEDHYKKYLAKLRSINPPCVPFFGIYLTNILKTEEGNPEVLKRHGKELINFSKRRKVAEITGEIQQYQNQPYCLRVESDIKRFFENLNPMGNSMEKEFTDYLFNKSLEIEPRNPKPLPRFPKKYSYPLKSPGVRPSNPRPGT
Sequence of human SOS1 (Q07889 564-1049): as the sequence (Q07889 564-1049, stated change not applied) above

Row | SMILES | IC50 [1] | Kd (human SOS1)
1 | C[C@@H](NC(=O)c1cn([C@H]2C[C@@H](F)C2)c(=O)cc1N[C@H]1[C@@H]2CN(C)C[C@@H]21)c1cccc(C(F)F)c1F [Example 96, N-((R)-1-(3-(difluoromethyl)-2-fluorophenyl)ethyl)-1-((1s,3S)-3-fluorocyclobutyl)-4-(((1R,5S,6s)-3-methyl-3-azabicyclo[3.1.0]hexan-6-yl)amino)-6-oxo-1,6-dihydropyridine-3-carboxamide] | 0.0157 µM | 0.009 µM
2 | C[C@@H](NC(=O)c1cn([C@@]2(C)CCOC2)c(=O)cc1N[C@H]1[C@@H]2CN(C)C[C@@H]21)c1cccc(C(F)F)c1F (single isomer, unassigned) [Example 151] | 0.0473 µM | 0.012 µM
3 | C[C@@H](NC(=O)c1cn(C2CC3(C2)CC(F)(F)C3)c(=O)cc1N[C@H]1CCN(C)C[C@H]1F)c1cccc(C(F)F)c1F [Example 127, N-((R)-1-(3-(difluoromethyl)-2-fluorophenyl)ethyl)-1-(6,6-difluorospiro[3 .3]heptan-2-yl)-4-(((3R,4S)-3-fluoro-1-methylpiperidin-4-yl)amino)-6-oxo-1,6-dihydropyridine-3-carboxamide] | 0.003 µM | 0.003 µM
4 | C[C@@H](NC(=O)c1cn([C@@H]2CC23CCC3)c(=O)cc1N[C@H]1[C@@H]2CN(C)C[C@@H]21)c1cccc(C(F)F)c1F (single isomer, unassigned) [Example 118] | 0.0166 µM | 0.011 µM
5 | C[C@@H](NC(=O)c1cn([C@@H]2CCC2(F)F)c(=O)cc1N[C@H]1[C@@H]2CN(C)C[C@@H]21)c1cccc(C(C)(F)F)c1F (single isomer, unassigned) [Example 149] | 0.0616 µM | 0.056 µM
6 | C[C@@H](NC(=O)c1cn(C2CC3(C2)CC(F)(F)C3)c(=O)cc1N[C@@H]1CCN(C)C[C@@H]1F)c1cccc(C(F)F)c1F [Example 126, N-((R)-1-(3-(difluoromethyl)-2-fluorophenyl)ethyl)-1-(6,6-difluorospiro[3 .3]heptan-2-yl)-4-(((3S,4R)-3-fluoro-1-methylpiperidin-4-yl)amino)-6-oxo-1,6-dihydropyridine-3-carboxamide] | 0.0044 µM | 0.002 µM
7 | C[C@@H](NC(=O)c1cn(C2(C(F)F)CC2)c(=O)cc1N[C@H]1[C@@H]2CN(C)C[C@@H]21)c1cccc(C(C)(F)F)c1F [Example 121, N-((R)-1-(3-(1,1-difluoroethyl)-2-fluorophenyl)ethyl)-1-(1-(difluoromethyl)cyclopropyl)-4-(((1R,5S,6s)-3-methyl-3-azabicyclo[3.1.0]hexan-6-yl)amino)-6-oxo-1,6-dihydropyridine-3-carboxamide] | 0.0289 µM | 0.021 µM
8 | C[C@@H](NC(=O)c1cn(C2CC3(C2)CC(F)(F)C3)c(=O)cc1N[C@H]1[C@@H]2CN(C)C[C@@H]21)c1cccc(C(F)F)c1F [Example 231, N-((R)-1-(3-(difluoromethyl)-2-fluorophenyl)ethyl)-1-(6,6-difluorospiro[3.3]heptan-2-yl)-4-(((1R,5S,6s)-3-methyl-3-azabicyclo[3.1.0]hexan-6-yl)amino)-6-oxo-1,6-dihydropyridine-3-carboxamide] | 0.0102 µM | 
9 | C[C@@H](NC(=O)c1cn(C2(C(F)F)CC2)c(=O)cc1N[C@H]1[C@@H]2CN(C)C[C@@H]21)c1cccc(C(F)(F)c2ccncc2)c1F [Example 174, N-((R)-1-(3-(difluoro(pyridin-4-yl)methyl)-2-fluorophenyl)ethyl)-1-(1-(difluoromethyl)cyclopropyl)-4-(((1R,5S,6s)-3-methyl-3-azabicyclo[3.1.0]hexan-6-yl)amino)-6-oxo-1,6-dihydropyridine-3-carboxamide] | 1.18 µM | 
10 | C[C@@H]1C[C@H]1n1cc(C(=O)N[C@H](C)c2cccc(C(F)F)c2F)c(N[C@H]2[C@@H]3CN(C)C[C@@H]32)cc1=O (single isomer, unassigned) [Example 272] | 0.0291 µM | 

Source: patent publication US20230348424A1, “HETEROCYCLIC COMPOUNDS AND METHODS OF USE” (Schrödinger, Inc., priority 2022, published 2023)
